Test results reported in US20240025856A1, “1,2,3,4-TETRAHYDROQUINOLINE DERIVATIVES AS INHIBITORS OF THE YAP/TAZ-TEAD ACTIVATION FOR TREATING CANCER” (KATHOLIEKE UNIVERSITEIT LEUVEN, priority 2020, published 2024).

Key:
Type in all cases: cell-based
[1] = test system: YAP/TAZ-TEAD transcription; assay: Reporter gene assay for measuring the inhibition of YAP/TAZ-TEAD transcription (TEAD-responsive element luciferase reporter in Hek293T cells); conditions: Homo sapiens, HEK-293T, 24 h, Hek293T cells transiently transfected with TEAD-responsive element luciferase reporter; 24 hours incubation
Method in brief: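 Hek293T cells transiently transfected with a TEAD-responsive element luciferase reporter, plated onto pre-diluted compounds and incubated 24 h at 37 °C/5% CO2. Luminescence read after SteadyLite addition; % inhibition from RLU relative to vehicle (0%) and a positive control inhibitor (100%), giving IC50.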

[2] = test system: NCI-1H2052; assay: Mesothelioma cell line proliferation assay, H2052 (ATPlite); conditions: Homo sapiens, NCI-H2052, 144 h, 6 days with compound, read-out: H2025 (EC50)
Experimental: Mesothelioma cell lines, NCI-1H226 and NCI-1H2052 (all sourced from the ATCC cell culture collection) are plated in 96-well plates (Corning® 96 Well White Polystyrene Microplate clear flat bottom, white polystyrene (TC-Treated)), at 1500 cells/well in full medium (RPMI 1640 ATCC modification with L-glutamine, HEPES, Phenol Red, Sodium Pyruvate, High glucose, Low sodium bicarbonate and 10% fetal bovine serum). Cells are incubated overnight at 37° C. in an incubator with 5% C02. Then compounds, dissolved in DMSO, are added in dose-response. Cells are incubated with compound dilutions for another 6 days at 37° C. in an incubator with 5% C02. Cell viability is quantitated using the ATPlite kit (Perkin-Elmer) and the luminescence is read-out using an Envision instrument (Perkin-Elmer). The amount of relative light units produced using the ATPlite kit is used to calculated percent of inhibition.
The activities of some example compounds are depicted in the table below. The activity ranges A, B and C refer to EC50 values in the mesothelioma cell line proliferation assay as described as follows: “A”: EC50<1 μM; “B”: 1 μM s EC50≤10 μM and “C”: EC50≥10 μM; NT: not tested.

[3] = test system: SCC-9; assay: Cancer cell line proliferation assay (CellTiter-Glo), SCC-9; conditions: Homo sapiens, 144 h, Head & neck (squamous), FAT1 HOM DEL, 6 days
Experimental: (§1) All the cell lines are cultured in the media supplemented with 10-20% fetal bovine serum, in the temperature of 37° C., 5% CO2 and 95% humidity. The indicated cell lines (all sourced from the ATCC cell culture collection) are plated in 96-Well Flat Clear Bottom Black Polystyrene TC-Treated Microplates with the final cell density of 4×10^3 cells/well. Cells are incubated overnight and then compounds, dissolved in DMSO, are added in dose-response. Cells are incubated with compound dilutions for another 6 days. Cell viability is quantitated using CellTiter-Glo reagent (Perkin Elmer) and measured using an EnVision Multi Label Reader.

[4] = test system: Calu-1; assay: Cancer cell line proliferation assay (CellTiter-Glo), Calu-1; conditions: Homo sapiens, 144 h, Lung (squamous), NF2 HOM DEL/LATS2 HOM DEL, 6 days
Experimental: as §1

SMILES: C=CC(=O)NC1Cc2ccccc2N(c2ccc(C(F)(F)F)cc2)C1 (stereo not shown) [compound 001, N-(1-(4-(trifluoromethyl)phenyl)-1,2,3,4-tetrahydroquinolin-3-yl)acrylamide]
- IC50 [1]: < 1000 nM
- EC50 [2]: < 1000 nM
- GI50 [3]: 50 nM
- GI50 [4]: 120 nM
